Paper PMC10057480, “Expanding the Library of 1,2,4-Oxadiazole Derivatives: Discovery of New Farnesoid X Receptor (FXR) Antagonists/Pregnane X Receptor (PXR) Agonists” (Molecules, 2023)
Values joined by “and” are separate entries in the source; they are usually repeats but may differ in a detail not shown here. Identical values can stand only once.

What was measured:
Assay type in all cases: cell-based
FXR = target: T1, FXR (Homo sapiens, UniProt Q96RI1); assay: FXR luciferase reporter transactivation assay (antagonism) on HepG2 cells; conditions: HepG2 transactivation; compounds at 50 μM; percent inhibition of transactivation set at 100%; mean ± SD, at least three experiments
T1 construct: expressed in transfected cells; host or cells: HepG2
T1 sequence (Q96RI1 1-486): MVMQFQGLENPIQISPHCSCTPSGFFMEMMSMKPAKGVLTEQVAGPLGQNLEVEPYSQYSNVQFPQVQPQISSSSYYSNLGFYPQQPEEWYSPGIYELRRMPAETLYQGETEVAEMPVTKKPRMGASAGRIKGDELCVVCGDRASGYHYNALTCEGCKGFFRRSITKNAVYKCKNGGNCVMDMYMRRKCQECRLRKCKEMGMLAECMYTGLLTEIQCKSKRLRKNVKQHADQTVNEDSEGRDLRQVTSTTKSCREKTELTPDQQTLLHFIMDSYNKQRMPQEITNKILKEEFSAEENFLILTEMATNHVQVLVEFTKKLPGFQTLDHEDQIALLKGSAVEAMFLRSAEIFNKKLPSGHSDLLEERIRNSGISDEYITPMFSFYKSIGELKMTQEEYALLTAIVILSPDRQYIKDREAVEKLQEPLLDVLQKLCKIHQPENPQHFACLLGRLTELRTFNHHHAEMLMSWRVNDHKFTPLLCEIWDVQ
Procedure: The antagonistic activity on FXR was investigated using HepG2 cells transfected with 100 ng of pSG5-FXR and pSG5-RXR, 200 ng of the reporter vector p(hsp27)-TK-LUC containing the FXR response element, and 100 ng of the pGL4.70 vector encoding the human Renilla gene used as a transfection control. […] In another experimental setting, HepG2 cells were transfected using 100 ng of pSG5-PXR, 100 ng of pSG5-RXR, and 100 ng of pGL4.70, along with the reporter vector pGL3(henance)PXRE. At 24 h post-transfection, cells were stimulated with rifaximin 10 μM (as a positive control) or compounds 2–11 (10 μM). The specificity of compounds 5 and 11 versus FXR and PXR was tested using HepG2 cells transiently transfected with 200 ng of the reporter vector p(UAS)5XTKLuc, 100 ng of a vector containing the ligand binding domain of LXRα or LXRβand 100 ng of pGL4.70, a vector encoding the human Renilla gene. At 24 h post-transfection, cells were stimulated for 18 h with GW3965 (5 μM), compounds 5 and 11 (10 μM), and the combination of GW3965 plus 5 or 11 (50 μM). Cellular lysate was assayed for luciferase and Renilla activities after 18 h using the Dual-Luciferase Reporter assay system (E1980, Promega, Madison, WI, USA). The activity of luciferase was measured using the Glomax 20/20 luminometer (Promega, Madison, WI, USA) and normalized with Renilla activities.

HepG2 cells = assay: Toxicity on HepG2 cells seen in the FXR transactivation assay; conditions: at 50 μM
Procedure: (§1) The antagonistic activity on FXR was investigated using HepG2 cells transfected with 100 ng of pSG5-FXR and pSG5-RXR, 200 ng of the reporter vector p(hsp27)-TK-LUC containing the FXR response element, and 100 ng of the pGL4.70 vector encoding the human Renilla gene used as a transfection control. Cells were stimulated with the agonist 6-ECDCA (10 µM) alone or in combination with compounds 2–11 after 24 h. In another experimental setting, HepG2 cells were transfected using 100 ng of pSG5-PXR, 100 ng of pSG5-RXR, and 100 ng of pGL4.70, along with the reporter vector pGL3(henance)PXRE. At 24 h post-transfection, cells were stimulated with rifaximin 10 μM (as a positive control) or compounds 2–11 (10 μM). The specificity of compounds 5 and 11 versus FXR and PXR was tested using HepG2 cells transiently transfected with 200 ng of the reporter vector p(UAS)5XTKLuc, 100 ng of a vector containing the ligand binding domain of LXRα or LXRβand 100 ng of pGL4.70, a vector encoding the human Renilla gene. At 24 h post-transfection, cells were stimulated for 18 h with GW3965 (5 μM), compounds 5 and 11 (10 μM), and the combination of GW3965 plus 5 or 11 (50 μM). Cellular lysate was assayed for luciferase and Renilla activities after 18 h using the Dual-Luciferase Reporter assay system (E1980, Promega, Madison, WI, USA). The activity of luciferase was measured using the Glomax 20/20 luminometer (Promega, Madison, WI, USA) and normalized with Renilla activities.

PXR = target: T2, PXR (Homo sapiens, UniProt O75469); assay: PXR luciferase reporter transactivation assay (agonism) on HepG2 cells; conditions: compound 10 μM, maximal transactivation compared to Rifaximin 10 μM, mean ± SD, at least three experiments
T2 construct: expressed in transfected cells; host or cells: HepG2
T2 sequence (O75469 1-434): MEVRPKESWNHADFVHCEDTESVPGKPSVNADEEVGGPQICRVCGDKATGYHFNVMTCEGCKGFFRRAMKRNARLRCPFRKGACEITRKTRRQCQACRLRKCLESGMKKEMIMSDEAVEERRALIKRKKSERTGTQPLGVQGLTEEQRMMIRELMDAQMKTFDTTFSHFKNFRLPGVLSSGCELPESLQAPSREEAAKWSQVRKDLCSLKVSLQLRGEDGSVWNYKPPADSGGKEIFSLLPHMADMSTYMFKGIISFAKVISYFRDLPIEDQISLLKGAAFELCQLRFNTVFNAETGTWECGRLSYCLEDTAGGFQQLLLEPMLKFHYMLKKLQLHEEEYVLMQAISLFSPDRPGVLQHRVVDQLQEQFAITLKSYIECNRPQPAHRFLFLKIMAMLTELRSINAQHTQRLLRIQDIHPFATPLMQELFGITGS
T2 sequence (P19793 1-462 partner): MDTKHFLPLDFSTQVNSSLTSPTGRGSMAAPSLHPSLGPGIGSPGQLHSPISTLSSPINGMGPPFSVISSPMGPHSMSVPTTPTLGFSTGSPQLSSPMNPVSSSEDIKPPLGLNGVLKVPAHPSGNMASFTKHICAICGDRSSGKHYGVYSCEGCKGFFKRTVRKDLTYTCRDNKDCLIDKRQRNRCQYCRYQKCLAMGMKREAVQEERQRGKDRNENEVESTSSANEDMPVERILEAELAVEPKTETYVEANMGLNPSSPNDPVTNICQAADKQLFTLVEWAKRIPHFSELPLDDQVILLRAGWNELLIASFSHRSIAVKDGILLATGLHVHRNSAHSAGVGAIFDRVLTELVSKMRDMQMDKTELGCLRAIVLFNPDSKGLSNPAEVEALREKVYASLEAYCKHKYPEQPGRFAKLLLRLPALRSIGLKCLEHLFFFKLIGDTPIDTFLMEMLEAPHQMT
Procedure: as §1

[1] = test system: Human-CaCo2 cells stimulated with TNFα; assay: qPCR of PXR and inflammatory cytokines in TNFα-stimulated CaCo2 cells; conditions: TNFα 100 ng/mL plus compound 10 μM
Procedure: HepG2 and CaCo2 cell lines, obtained from ATCC, were routinely cultured in Eagle’s MEM and high-glucose DMEM, respectively, supplemented with 10% FBS, 1% glutamine, and penicillin/streptomycin. For in vitro experiments, HepG2 (2 × 106) cells were stimulated with 6-ECDCA at a concentration of 10 µM alone or in combination with compound 5 or 11, and CaCo2 cells were exposed to TNFα (100 ng/mL) alone or in combination with rifaximin, compound 5, or 11.
Total RNA was isolated from the HepG2 and CaCo2 cell lines using TRI reagent (Zymo Research) and Direct-zol™ RNA MicroPrep w/Zymo-Spin™ IIC Columns (Zymo Research, Irvine, CA, USA). After purification from genomic DNA using DNase I (Thermo Fisher Scientific, Waltham, MA, USA), 2 μg of RNA from each sample was reverse transcribed using Kit FastGene Scriptase Basic (Nippon Genetics, Mariaweilerstraße, Düren, Germany) in 20-μL of reaction volume, and 50 ng of cDNA was amplified in a 20-μL solution containing 200 nM of each primer and 10 μL of PowerUp™ SYBR™ Green Master Mix (Thermo Fisher Scientific, Waltham, MA, USA) using a Quantstudio 3 system (Applied Biosystems, Foster City, CA, USA). The relative mRNA expression was calculated according to the ΔCt method. The primer used were as follows (forward and reverse): hGapdh (for […]; rev […]), hBsep (for […]; rev […]), hOstα (for […]; rev […]), hNtcp (for […]; rev […]), hPxr (for GCAAGGGCTTTTTCAGGAG; rev GGGTCTTCCGGGTGATCT), hIl-8 (for […]; rev […]), hIl-1β (for […]; rev […]).

Row | SMILES | PXR Agonism Eff (%) (PXR) | FXR Antagonism Eff (%) (FXR) | Toxicity on HepG2 cells (HepG2 cells) | Effect on proinflammatory factors caused by TNFα stimulation [1]
1 | CC(C)N1CCC(c2nc(-c3ccc4ccccc4c3)no2)CC1 [Compound 8, 5-(1-Isopropylpiperidin-4-yl)-3-(naphthalen-2-yl)-1,2,4-oxadiazole] | 50% and 50 ± 7% |  |  | 
2 | CCC(C)N1CCC(c2nc(-c3ccc4ccccc4c3)no2)CC1 (stereo not shown) [Compound 9, 5-(1-(Sec-butyl)piperidin-4-yl)-3-(naphthalen-2-yl)-1,2,4-oxadiazole] | 3 ± 0.2% | Toxic | toxic | 
3 | OCc1cccc(CN2CCC(c3nc(-c4ccc5ccccc5c4)no3)CC2)c1 [Compound 10, 5-[1-(3-(Hydroxymethyl)benzyl)piperidin-4-yl]-3-(naphthalen-2-yl)-1,2,4-oxadiazole] | 20 ± 3% | 66% and 66 ± 13% |  | 
4 | CO[C@H]1/C=C/O[C@@]2(C)Oc3c(C)c(O)c4c(O)c(c5c(nc6cc(C)ccn65)c4c3C2=O)NC(=O)/C(C)=C\C=C\[C@H](C)[C@H](O)[C@@H](C)[C@@H](O)[C@@H](C)[C@H](OC(C)=O)[C@@H]1C [rifaximin, reference compound] |  |  |  | reduced changes in the production of proinflammatory factors

Now from value to compound, other results behind:

Row | PXR Agonism Eff (%) (PXR) | SMILES | FXR Antagonism Eff (%) (FXR) | Toxicity on HepG2 cells (HepG2 cells) | Effect on proinflammatory factors caused by TNFα stimulation [1]
5 | 15 ± 0.5% | CCCN1CCC(c2nc(-c3ccc4ccccc4c3)no2)CC1 [Compound 3, 3-(Naphthalen-2-yl)-5-(1-propylpiperidin-4-yl)-1,2,4-oxadiazole] | Toxic | toxic | 
6 | 2 ± 0.3% | CCN1CCC(c2nc(-c3ccc4ccccc4c3)no2)CC1 [Compound 2, 5-(1-Ethylpiperidin-4-yl)-3-(naphthalen-2-yl)-1,2,4-oxadiazole] | Toxic | toxic | 
7 | 23 ± 0.7% | CCCCCCN1CCC(c2nc(-c3ccc4ccccc4c3)no2)CC1 [Compound 6, 5-(1-Hexylpiperidin-4-yl)-3-(naphthalen-2-yl)-1,2,4-oxadiazole] |  |  | 
8 | 28 ± 3% | CCCCCCCN1CCC(c2nc(-c3ccc4ccccc4c3)no2)CC1 [Compound 7, 5-(1-Heptylpiperidin-4-yl)-3-(naphthalen-2-yl)-1,2,4-oxadiazole] | Toxic | toxic | 
9 | 68% and 68 ± 8% | CCCCN1CCC(c2nc(-c3ccc4ccccc4c3)no2)CC1 [Compound 4, 5-(1-Butylpiperidin-4-yl)-3-(naphthalen-2-yl)-1,2,4-oxadiazole] | 38 ± 5% |  | 
